This is an account of results in paper PMC4585938, “Ursolic acid exerts anti-cancer activity by suppressing vaccinia-related kinase 1-mediated damage repair in lung cancer cells” (Scientific Reports, 2015).

This assay has as its target vaccinia-related kinase 1 (VRK1) (Homo sapiens, UniProt Q99986). Kind of assay: biochemical. In kind it is binding.

vaccinia-related kinase 1 (VRK1), sequence (Q99986 whole entry): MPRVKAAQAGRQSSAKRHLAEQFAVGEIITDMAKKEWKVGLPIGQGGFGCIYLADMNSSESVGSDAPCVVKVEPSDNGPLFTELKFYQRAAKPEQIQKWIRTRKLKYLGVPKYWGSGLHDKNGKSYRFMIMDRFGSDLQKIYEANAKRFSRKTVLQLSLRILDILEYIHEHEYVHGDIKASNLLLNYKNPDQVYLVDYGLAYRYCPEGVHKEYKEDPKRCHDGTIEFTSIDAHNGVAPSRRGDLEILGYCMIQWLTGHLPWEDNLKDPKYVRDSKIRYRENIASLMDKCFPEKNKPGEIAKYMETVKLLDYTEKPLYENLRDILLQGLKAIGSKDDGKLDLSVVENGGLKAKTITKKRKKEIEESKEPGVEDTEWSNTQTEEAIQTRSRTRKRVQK

With `C[C@H]1[C@H](C)CC[C@]2(C(=O)O)CC[C@]3(C)C(=CC[C@@H]4[C@@]5(C)CC[C@H](O)C(C)(C)[C@@H]5CC[C@]43C)[C@H]12` [UA, (1S,2R,4aS,6aR,6aS,6bR,8aR,10S,12aR,14bS)-10-hydroxy-1,2,6a,6b,9,9,12a-heptamethyl-2,3,4,5,6,6a,7,8,8a,10,11,12,13,14b-tetradecahydro-1H-picene-4a-carboxylic acid], the Kd (commonly the concentration at which binding is half-saturated) stood at 731 nM.
